Results taken from the supplement of paper PMC13380429.

Tests used:
Details in all cases: 72 h
[1] = system: Caco-2; assay: cell viability relative to DMSO; higher = less toxic
[2] = system: Calu-3; assay: as above
[3] = system: HepG2; assay: as above
[4] = system: U2OS; assay: as above
[5] = system: Vero E6; assay: as above
[6] = system: Caco-2; assay: relative viability EC50 (midpoint between 100% and the lowest measured viability); higher = less toxic
[7] = system: Calu-3; assay: as above
[8] = system: HepG2; assay: as above
[9] = system: U2OS; assay: as above
[10] = system: Vero E6; assay: as above
[11] = system: Caco-2; assay: drug sensitivity score (DSS) for viability; higher = more toxic; extreme values may be limits of the assay
[12] = system: Calu-3; assay: as above
[13] = system: HepG2; assay: as above
[14] = system: U2OS; assay: as above
[15] = system: Vero E6; assay: as above

Compound | cell viability ([1]; 1 nM) [%] | cell viability ([1]; 10 nM) [%] | cell viability ([1]; 100 nM) [%] | cell viability ([1]; 1000 nM) [%] | cell viability ([1]; 10000 nM) [%] | cell viability ([2]; 1 nM) [%] | cell viability ([2]; 10 nM) [%] | cell viability ([2]; 100 nM) [%] | cell viability ([2]; 1000 nM) [%] | cell viability ([2]; 10000 nM) [%] | cell viability ([3]; 1 nM) [%] | cell viability ([3]; 10 nM) [%] | cell viability ([3]; 100 nM) [%] | cell viability ([3]; 1000 nM) [%] | cell viability ([3]; 10000 nM) [%] | cell viability ([4]; 1 nM) [%] | cell viability ([4]; 10 nM) [%] | cell viability ([4]; 100 nM) [%] | cell viability ([4]; 1000 nM) [%] | cell viability ([4]; 10000 nM) [%] | cell viability ([5]; 1 nM) [%] | cell viability ([5]; 10 nM) [%] | cell viability ([5]; 100 nM) [%] | cell viability ([5]; 1000 nM) [%] | cell viability ([5]; 10000 nM) [%] | relative viability EC50 [6] [µM] | relative viability EC50 [7] [µM] | relative viability EC50 [8] [µM] | relative viability EC50 [9] [µM] | relative viability EC50 [10] [µM] | drug sensitivity score [11] | drug sensitivity score [12] | drug sensitivity score [13] | drug sensitivity score [14] | drug sensitivity score [15]
Cc1ncc(CO)c(C=O)c1O [pyridoxal] | 114 | 104 | 104 | 112 | 92.1 | 105 | 91.4 | 99.9 | 99.7 | 118 | 91 | 81.7 | 102 | 94.1 | 80 | 98.6 | 95.7 | 103 | 103 | 99.9 | 102 | 92.6 | 96 | 94.4 | 102 | > 10 | > 10 | > 10 | > 10 | > 10 | 0 | 0 | 1.3 | 0 | 0
Cc1nccc2c1[nH]c1ccccc12 [harmane] | 95.1 | 101 | 105 | 102 | 93 | 106 | 97.7 | 101 | 91.8 | 103 | 92.9 | 96.2 | 99.6 | 99.1 | 105 | 101 | 98.8 | 100 | 97.5 | 101 | 97.2 | 102 | 94.3 | 96.6 | 98.2 | > 10 | > 10 | > 10 | > 10 | > 10 | 0 | 0 | 0 | 0 | 0
CNC(=O)c1nn(C)c2c1C(C)(C)Cc1cnc(Nc3ccc(N4CCN(C)CC4)cc3)nc1-2 | 98.1 | 92.2 | 90.3 | 53 | 28.9 | 95.1 | 100 | 89 | 67.9 | 22.1 | 89.9 | 102 | 75.7 | 37.7 | 16.5 | 99.7 | 93.6 | 97.3 | 47.4 | 3.6 | 91.9 | 96.1 | 85 | 31.2 | 6.4 | 0.518 | 1.2 | 0.288 | 0.898 | 0.409 | 10.2 | 7.9 | 14.5 | 11.6 | 14.8
O=C(O)[C@@H]1C[C@@H](O)CN1 [L-hydroxyproline] | 80.5 | 92.4 | 100 | 96.1 | 95.8 | 95 | 94.4 | 93.5 | 96.9 | 106 | 101 | 112 | 99.7 | 108 | 90.8 | 95.9 | 102 | 100 | 95.2 | 102 | 104 | 114 | 99.5 | 105 | 94.4 | > 10 | > 10 | > 10 | > 10 | > 10 | 0 | 0 | 0 | 0 | 0
CCC(C)(C)C(=O)C(=O)N1CCC[C@H]1C(=O)OCCCc1cccnc1 [GPI-1046] | 96.5 | 96 | 89.5 | 105 | 105 | 101 | 88.9 | 106 | 103 | 113 | 86.9 | 98.6 | 108 | 90.7 | 91.4 | 97.6 | 95.3 | 91.7 | 102 | 104 | 100 | 96.4 | 100 | 91.6 | 96.9 | > 10 | > 10 | > 10 | > 10 | > 10 | 0 | 0 | 0.6 | 0 | 0
Cc1ccc(C(=O)C(C)CN2CCCCC2)cc1 (stereo not given) [tolperisone] | 92.4 | 98.5 | 94.9 | 94.4 | 94.6 | 107 | 93.2 | 110 | 100 | 99.4 | 94.2 | 95 | 96.3 | 102 | 86.5 | 102 | 100 | 97.2 | 98.4 | 98.1 | 97.6 | 99.4 | 104 | 100 | 99.4 | > 10 | > 10 | > 10 | > 10 | > 10 | 0 | 0 | 0.1 | 0 | 0
CC(N)CCCC(C)(C)O (stereo not given) [heptaminol] | 90.3 | 91.7 | 96.7 | 107 | 106 | 94.4 | 144 | 103 | 101 | 94.2 | 106 | 96.3 | 102 | 95.6 | 104 | 95.1 | 97.7 | 98.1 | 103 | 105 | 95.1 | 95.7 | 97.3 | 94.3 | 104 | > 10 | > 10 | > 10 | > 10 | > 10 | 0 | 0 | 0 | 0 | 0
Nc1ncnc2c1c(COc1cccc(Cl)c1)nn2C1CCOCC1 | 89.2 | 99.2 | 99.7 | 100 | 91.3 | 95.4 | 104 | 95.3 | 97.2 | 84.2 | 91.3 | 89.1 | 109 | 91.8 | 99.4 | 92.5 | 98.1 | 94.9 | 96.9 | 96.4 | 96.5 | 96.5 | 97.6 | 89.3 | 112 | > 10 | > 10 | > 10 | > 10 | > 10 | 0 | 0.6 | 0 | 0 | 0
O=C(O)c1ccc2c(c1)C(=O)N(c1cccc(Oc3ccc([N+](=O)[O-])cc3)c1)C2=O | 92.5 | 102 | 98 | 94.7 | 100 | 94.8 | 96.5 | 104 | 96.8 | 99 | 104 | 94.8 | 95.5 | 92.9 | 103 | 95.5 | 99 | 94.6 | 99 | 94.3 | 94.1 | 99.7 | 98.7 | 90.1 | 100 | > 10 | > 10 | > 10 | > 10 | > 10 | 0 | 0 | 0 | 0 | 0
O=C(c1c2ccccc2cc2ccccc12)N1CCC(N2CCC[C@@H](C(=O)N3CCOCC3)C2)CC1 | 84.6 | 100 | 87.3 | 94.3 | 87.2 | 100 | 99.8 | 105 | 113 | 117 | 93.7 | 93.2 | 96.9 | 85.3 | 82.3 | 92.7 | 98.9 | 102 | 103 | 101 | 97.9 | 93.4 | 93.8 | 89.7 | 99.8 | > 10 | > 10 | > 10 | > 10 | > 10 | 0 | 0 | 1.1 | 0 | 0
O=C(OC(C(F)(F)F)C(F)(F)F)N1CCC(C(O)(c2ccc3c(c2)OCO3)c2ccc3c(c2)OCO3)CC1 [KML29] | 94.6 | 99.6 | 117 | 97 | 106 | 109 | 105 | 98 | 108 | 92.6 | 96.7 | 96.1 | 94.1 | 106 | 98.8 | 103 | 99.8 | 101 | 95.5 | 95.5 | 94 | 96.2 | 97.8 | 98.3 | 91.7 | > 10 | > 10 | > 10 | > 10 | > 10 | 0 | 0 | 0 | 0 | 0
C=C1CC[C@@]2(O)[C@H]3Cc4ccc(O)c5c4[C@@]2(CCN3CC2CC2)[C@H]1O5 [nalmefene] | 95.5 | 94.6 | 93.8 | 102 | 99.3 | 96.6 | 97.5 | 106 | 88.6 | 103 | 102 | 95.3 | 110 | 95.1 | 113 | 95.6 | 98.6 | 93.7 | 99.4 | 106 | 106 | 96.9 | 96.8 | 98.3 | 107 | > 10 | > 10 | > 10 | > 10 | > 10 | 0 | 0 | 0 | 0 | 0
CC(C)[C@H](CO)Nc1nc(Nc2ccc(C(=O)O)c(Cl)c2)c2ncn(C(C)C)c2n1 [purvalanol-B] | 89.4 | 91.9 | 103 | 96.8 | 98.3 | 111 | 101 | 106 | 114 | 95.5 | 93.5 | 99.2 | 99.1 | 98.4 | 98.9 | 97.1 | 96.1 | 101 | 103 | 107 | 94 | 96.4 | 95.9 | 94.9 | 103 | > 10 | > 10 | > 10 | > 10 | > 10 | 0 | 0 | 0 | 0 | 0
O=C(Nc1cccc(C(F)(F)F)c1)Nc1cc(S(=O)(=O)NC2CC2)ccc1-c1ccsc1 [AGI-6780] | 94.2 | 93 | 99.8 | 97.4 | 85.7 | 96.9 | 90.4 | 99 | 103 | 110 | 93.3 | 103 | 94 | 105 | 86.5 | 97.6 | 98.9 | 101 | 92.3 | 87.5 | 95.1 | 97.4 | 93.5 | 97.2 | 106 | > 10 | > 10 | > 10 | > 10 | > 10 | 0.4 | 0 | 0.1 | 0.4 | 0
